Results: patent US10160747B2, “Compounds and methods for kinase modulation, and indications therefor” (Plexxikon Inc., priority 2016, dated 2018)

What was measured:
[1] = tested on: MOLM-14 F691L (endogenous FLT3 ITD and transfected FLT3 F691L); test: MOLM-14 F691L cell proliferation assay (CellTiter-Glo); type: cell-based; settings: Homo sapiens, MOLM-14, 72 h; 3 d growth, GMean
Outline: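 MOLM-14 derivatives carrying D835Y or F691L, selected under escalating AC220, were seeded at 1×10^4 cells/well and exposed to an 8-point 1:3 compound series (1 to 0.00046 μM, 0.2% DMSO final) for three days at 37° C., 5% CO2. CellTiter-Glo luminescence (ATP content) versus concentration gave IC50.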

FLT3-ITD = target: T1, FLT3-ITD (Homo sapiens, UniProt P36888); test: FLT3-ITD recombinant enzyme kinase assay (AlphaScreen); type: biochemical; settings: 8 pt; read-out: FLT3_ITD 8 pt: IC50
T1 sequence (P36888 1-993): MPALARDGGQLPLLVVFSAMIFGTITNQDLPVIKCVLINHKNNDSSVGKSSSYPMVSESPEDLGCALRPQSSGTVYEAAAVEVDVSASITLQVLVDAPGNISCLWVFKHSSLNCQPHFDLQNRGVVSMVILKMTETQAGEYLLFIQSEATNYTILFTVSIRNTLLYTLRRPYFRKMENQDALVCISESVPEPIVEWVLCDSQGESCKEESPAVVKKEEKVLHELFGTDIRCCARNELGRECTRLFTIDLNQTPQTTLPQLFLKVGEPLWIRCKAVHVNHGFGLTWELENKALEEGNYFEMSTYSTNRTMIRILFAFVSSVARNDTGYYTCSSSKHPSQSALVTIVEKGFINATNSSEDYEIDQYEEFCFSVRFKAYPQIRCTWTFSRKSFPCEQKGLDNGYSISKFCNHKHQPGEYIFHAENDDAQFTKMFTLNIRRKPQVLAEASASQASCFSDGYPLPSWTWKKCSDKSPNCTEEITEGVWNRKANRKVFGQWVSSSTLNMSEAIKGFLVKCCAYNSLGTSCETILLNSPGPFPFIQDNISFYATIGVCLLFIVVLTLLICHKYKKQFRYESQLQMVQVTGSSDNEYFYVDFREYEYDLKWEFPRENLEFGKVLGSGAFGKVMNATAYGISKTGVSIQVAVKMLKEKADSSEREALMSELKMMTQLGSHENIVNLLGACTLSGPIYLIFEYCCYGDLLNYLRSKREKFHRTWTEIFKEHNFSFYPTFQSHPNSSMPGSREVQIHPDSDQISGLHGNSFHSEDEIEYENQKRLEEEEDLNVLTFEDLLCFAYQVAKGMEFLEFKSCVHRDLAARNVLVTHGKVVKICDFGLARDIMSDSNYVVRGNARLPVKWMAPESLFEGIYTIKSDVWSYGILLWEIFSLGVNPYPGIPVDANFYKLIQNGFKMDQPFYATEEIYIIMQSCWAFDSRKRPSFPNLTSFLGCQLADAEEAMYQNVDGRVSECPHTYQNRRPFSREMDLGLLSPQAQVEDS
Outline: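 Kinase activity of recombinant FLT3-ITD, FLT3-D835Y and c-KIT was followed via phosphotyrosine formation on a 30 nM biotin-peptide substrate, captured on streptavidin donor and anti-phosphotyrosine acceptor AlphaScreen beads. ATP was set at 10 μM for FLT3 and 100 μM for c-KIT.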

Row | SMILES | IC50 [1] [µM] | IC50 (FLT3-ITD) [µM]
1 | O=C(Cc1ccc(-c2cnc3[nH]cc(F)c3c2)cc1F)Nc1cc(Cl)c(C2CC2)cn1 [Compound P-0044, N-(4-chloro-5-cyclopropyl-2-pyridyl)-2-[2-fluoro-4-(3-fluoro-1H-pyrrolo[2,3-b]pyridin-5-yl)phenyl]acetamide] | 0.0001 to 10 | 0.0001 to 10
2 | COc1ncc(NC(=O)Cc2ccc(-c3cnc4[nH]cc(Cl)c4n3)cc2F)cc1C(F)(F)F [Compound P-0047, 2-[4-(7-chloro-5H-pyrrolo[2,3-b]pyrazin-2-yl)-2-fluoro-phenyl]-N-[6-methoxy-5-(trifluoromethyl)-3-pyridyl]acetamide] | 0.0001 to 10 | 0.0001 to 10
3 | COc1nn(C[C@H](C)O)cc1Nc1ncc(-c2ccc(CC(=O)Nc3cncc(C(F)(F)F)c3)c(F)c2)cn1 [Compound P-0050, 2-[2-fluoro-4-[2-[[1-[(2S)-2-hydroxypropyl]-3-methoxy-pyrazol-4-yl]amino]pyrimidin-5-yl]phenyl]-N-[5-(trifluoromethyl)-3-pyridyl]acetamide] | 0.0001 to 10 | 0.0001 to 10
4 | Cn1cnc(Nc2ncc(-c3ccc(CC(=O)Nc4cncc(C(F)(F)F)c4)c(F)c3)cn2)c1 [Compound P-0052, 2-[2-fluoro-4-[2-[(1-methylimidazol-4-yl)amino]pyrimidin-5-yl]phenyl]-N-[5-(trifluoromethyl)-3-pyridyl]acetamide] | 0.0001 to 10 | 0.0001 to 10
5 | O=C(Cc1ccc(-c2cnc3[nH]cc(F)c3c2)cc1F)Nc1cncc(C(F)(F)F)c1 [Compound P-0053, 2-[2-fluoro-4-(3-fluoro-1H-pyrrolo[2,3-b]pyridin-5-yl)phenyl]-N-[5-(trifluoromethyl)-3-pyridyl]acetamide] | 0.0001 to 10 | 0.0001 to 10
6 | CC(=O)c1c[nH]c2ncc(-c3ccc(CC(=O)Nc4cncc(C(F)(F)F)c4)c(F)c3)cc12 [Compound P-0055, 2-[4-(3-acetyl-1H-pyrrolo[2,3-b]pyridin-5-yl)-2-fluoro-phenyl]-N-[5-(trifluoromethyl)-3-pyridyl]acetamide] | 0.0001 to 10 | 0.0001 to 10
7 | Cc1ncc(NC(=O)Cc2ccc(-c3cnc4c(c3)C3(CC3)C(=O)N4)cc2F)cc1C(F)(F)F [Compound P-0057, 2-[2-fluoro-4-(2-oxospiro[1H-pyrrolo[2,3-b]pyridine-3,1′-cyclopropane]-5-yl)phenyl]-N-[6-methyl-5-(trifluoromethyl)-3-pyridyl]acetamide] | 0.0001 to 10 | 0.0001 to 10
8 | O=C(Cc1ccc(-c2cnc(Nc3cnn4ccccc34)nc2)cc1F)Nc1cncc(C(F)(F)F)c1 [Compound P-0058, 2-[2-fluoro-4-[2-(pyrazolo[1,5-a]pyridin-3-ylamino)pyrimidin-5-yl]phenyl]-N-[5-(trifluoromethyl)-3-pyridyl]acetamide] | 0.0001 to 10 | 0.0001 to 10
9 | Cc1ncc(NC(=O)Cc2ccc(-c3cnc4[nH]cc(Cl)c4n3)cc2F)cc1C(F)(F)F [Compound P-0059, 2-[4-(7-chloro-5H-pyrrolo[2,3-b]pyrazin-2-yl)-2-fluoro-phenyl]-N-[6-methyl-5-(trifluoromethyl)-3-pyridyl]acetamide] | 0.0001 to 10 | 0.0001 to 10
10 | O=C(Cc1ccc(-c2cnc3[nH]cc(Cl)c3n2)cc1F)Nc1cnc(Cl)c(C(F)(F)F)c1 [Compound P-0060, 2-[4-(7-chloro-5H-pyrrolo[2,3-b]pyrazin-2-yl)-2-fluoro-phenyl]-N-[6-chloro-5-(trifluoromethyl)-3-pyridyl]acetamide] | 0.0001 to 10 | 0.0001 to 10
11 | O=C(Cc1ccc(-c2cnc3[nH]cc(Cl)c3n2)cc1F)Nc1cncc(C(F)(F)F)c1 [Compound P-0061, 2-[4-(7-chloro-5H-pyrrolo[2,3-b]pyrazin-2-yl)-2-fluoro-phenyl]-N-[5-(trifluoromethyl)-3-pyridyl]acetamide] | 0.0001 to 10 | 0.0001 to 10
12 | Cc1ncc(NC(=O)Cc2ccc(-c3cnc4[nH]cc(F)c4c3)cc2F)cc1C(F)(F)F [Compound P-0062, 2-[2-fluoro-4-(3-fluoro-1H-pyrrolo[2,3-b]pyridin-5-yl)phenyl]-N-[6-methyl-5-(trifluoromethyl)-3-pyridyl]acetamide] | 0.0001 to 10 | 0.0001 to 10
13 | CC(=O)c1c[nH]c2ncc(-c3ccc(CC(=O)Nc4cnc(C)c(C(F)(F)F)c4)c(F)c3)cc12 [Compound P-0063, 2-[4-(3-acetyl-1H-pyrrolo[2,3-b]pyridin-5-yl)-2-fluoro-phenyl]-N-[6-methyl-5-(trifluoromethyl)-3-pyridyl]acetamide] | 0.0001 to 10 | 0.0001 to 10
14 | Cc1ncc(NC(=O)Cc2ccc(-c3cnc(Nc4cnn5ccccc45)nc3)cc2F)cc1C(F)(F)F [Compound P-0065, 2-(2-fluoro-4-(2-(pyrazolo[1,5-a]pyridin-3-ylamino)pyrimidin-5-yl)phenyl)-N-(6-methyl-5-(trifluoromethyl)pyridin-3-yl)acetamide] | 0.0001 to 10 | 0.0001 to 10
15 | Cc1ncc(NC(=O)Cc2ccc(-c3cnc4[nH]nc(C5CC5)c4c3)cc2F)cc1C(F)(F)F [Compound P-0066, 2-(4-(3-cyclopropyl-1H-pyrazolo[3,4-b]pyridin-5-yl)-2-fluorophenyl)-N-(6-methyl-5-(trifluoromethyl)pyridin-3-yl)acetamide] | 0.0001 to 10 | 0.0001 to 10
16 | Cc1ncc(NC(=O)Cc2ccc(-c3cnc4[nH]c(Cl)cc4c3)cc2F)cc1C(F)(F)F [Compound P-0067, 2-[4-(2-chloro-1H-pyrrolo[2,3-b]pyridin-5-yl)-2-fluoro-phenyl]-N-[6-methyl-5-(trifluoromethyl)-3-pyridyl]acetamide] | 0.0001 to 10 | 0.0001 to 10
17 | CCC(=O)c1c[nH]c2ncc(-c3ccc(CC(=O)Nc4cncc(C(F)(F)F)c4)c(F)c3)cc12 [Compound P-0068, 2-[2-fluoro-4-(3-propanoyl-1H-pyrrolo[2,3-b]pyridin-5-yl)phenyl]-N-[5-(trifluoromethyl)-3-pyridyl]acetamide] | 0.0001 to 10 | 0.0001 to 10
18 | CCC(=O)c1c[nH]c2ncc(-c3ccc(CC(=O)Nc4cnc(C)c(C(F)(F)F)c4)c(F)c3)cc12 [Compound P-0070, 2-[2-fluoro-4-(3-propanoyl-1H-pyrrolo[2,3-b]pyridin-5-yl)phenyl]-N-[6-methyl-5-(trifluoromethyl)-3-pyridyl]acetamide] | 0.0001 to 10 | 0.0001 to 10
19 | O=C(Cc1ccc(-c2cnc(Nc3cnn4ccccc34)nc2)c(F)c1)Nc1cncc(C(F)(F)F)c1 [Compound P-0071, 2-[3-fluoro-4-[2-(pyrazolo[1,5-a]pyridin-3-ylamino)pyrimidin-5-yl]phenyl]-N-[5-(trifluoromethyl)-3-pyridyl]acetamide] | 0.0001 to 10 | 0.0001 to 10
20 | O=C(Cc1ccc(-c2cnc3[nH]nc(C4CC4)c3c2)cc1F)Nc1cncc(C(F)(F)F)c1 [Compound P-0072, 2-[4-(3-cyclopropyl-1H-pyrazolo[3,4-b]pyridin-5-yl)-2-fluoro-phenyl]-N-[5-(trifluoromethyl)-3-pyridyl]acetamide] | 0.0001 to 10 | 0.0001 to 10
21 | O=C(Cc1ccc(-c2cnc3[nH]nc(C4CC4)c3c2)cc1)Nc1cncc(C(F)(F)F)c1 [Compound P-0073, 2-[4-(3-cyclopropyl-1H-pyrazolo[3,4-b]pyridin-5-yl)phenyl]-N-[5-(trifluoromethyl)-3-pyridyl]acetamide] | 0.0001 to 10 | 0.0001 to 10
22 | O=C(Cc1ccc(-c2cnc(Nc3cnn4ccccc34)nc2)cc1)Nc1cncc(C(F)(F)F)c1 [Compound P-0074, 2-[4-[2-(pyrazolo[1,5-a]pyridin-3-ylamino)pyrimidin-5-yl]phenyl]-N-[5-(trifluoromethyl)-3-pyridyl]acetamide] | 0.0001 to 10 | 0.0001 to 10
23 | Cc1ncc(NC(=O)Cc2ccc(-c3cnc(Nc4cnn(C)c4C)nc3)cc2F)cc1C(F)(F)F [Compound P-0076, 2-[4-[2-[(1,5-dimethylpyrazol-4-yl)amino]pyrimidin-5-yl]-2-fluoro-phenyl]-N-[6-methyl-5-(trifluoromethyl)-3-pyridyl]acetamide] | 0.0001 to 10 | 0.0001 to 10
